From paper PMC12069643, “Structural insights into the selective recognition of RF-amide peptides by neuropeptide FF receptor 2” (EMBO Reports, 2025)

Tests used:
Test in all cases: GloSensor forskolin-stimulated cAMP assay, NPFFR2 mutants
Type in all cases: cell-based
NPFFR2 mutants [1] = target: T1, NPFFR2 mutants (Homo sapiens, UniProt Q9Y5X5, D207A); settings: NPFFR2 D1052.64A, HEK293T, three independent experiments
T1 construct: expressed in transfected cells; host or cells: HEK293T (pcDNA3.1 NPFFR2 mutants)
Description: (§1) Figure 2 Interaction of hNPSF with NPFFR2. (A) Residues participating in the interactions between hNPSF and NPFFR2 in the transmembrane (TM) binding pocket are shown as sticks. Dashed lines indicate polar interactions and hydrogen bonds between residues. Zoomed-in views highlighting interactions of the C-terminal segment (residues −1 to −4, PQRF), middle segment (residues −5 to −8, FLFQ), and the N-terminal segment (residues −9 to −11, SQA) of hNPSF are enclosed in red, blue, and yellow boxes, respectively. (B) NPFFR2 residues interacting with hNPSF were mutated to alanine, and the impact of each mutation on the EC50 value (ΔpEC50) was investigated using a forskolin-stimulated cAMP assay, after confirming surface expression of each mutant by an ELISA-based surface expression assay (Appendix Fig. S5). Three independent experiments (with technical triplicates) were conducted for each mutant. The bar graphs represent the mean of ΔpEC50 values from each experiment, with error bars indicating SEM. Statistical analyses were performed using ordinary one-way ANOVA followed by Dunnett’s test, comparing to the wild-type response. ns (not significant, P > 0.05); *P < 0.05; **P < 0.01; ***P < 0.001. Source data are available online for this figure.
(§2) HEK293T cells were seeded at a density of 6 × 10^5 cells per well in a six-well cell culture plate (SPL) and co-transfected with expression plasmids encoding GloSensor™ and each NPFFR construct, using 1 µg to 4 µg of DNA per well according to the Lipofectamine™ 2000 Transfection Reagent (Invitrogen) protocol. After 48 h of incubation under standard conditions (37 °C, 5% CO2), the cells were detached using Accutase solution (Sigma-Aldrich) and washed with PBS. The cells were then pelleted by centrifugation, resuspended in CO2-independent medium (Gibco) supplemented with Firefly D-Luciferin (0.5 mg/ml, NanoLight), and distributed into a 96-well white plate (SPL). After a 2-hour incubation, serially diluted ligands and 0.5 μM forskolin were added to each well to detect ligand-induced signaling. Luminescence signals were measured using a Mithras LB940 instrument (Berthold) with a measurement time of 1 s per well.
(§3) Data from the GloSensor^TM cAMP signaling assays were analyzed using GraphPad Prism with a three-parameter logistic model to fit concentration-response curves for both wild-type (WT) and mutant receptors. Mutant expression levels and DNA amounts were adjusted to match WT conditions. ΔpEC50 values were calculated by subtracting the log EC50 of the WT receptor from that of each mutant. Results are presented as mean ± SEM from three independent biological replicates, each performed in duplicate or more. Error bars represent the SEM. Statistical significance was assessed using one-way ANOVA, followed by Dunnett’s tests comparisons to the WT receptor. Significance levels were reported as follows: ns (not significant, P > 0.05); *P < 0.05; **P < 0.01; ***P < 0.001.
(§4) Appendix Figure S5. GloSensorTM cAMP assays of mutants and wild-type NPFFR2.
(§5) The dose-response of cAMP assay data for each mutant (red) presented in Fig. 2B are compared against the wild-type NPFFR2 (blue). Each experiment was conducted after adjusting the mutant's expression level to that of the wild-type NPFFR2 (Appendix Fig. S3), and pcDNA3.1 was used to match the total amount of DNA transfected. Data points represent mean values from three independent experiments (each with technical triplicate), with error bars indicating SEM. Raw data were normalized to the vehicle -treated (0%) and 0.5 μM forskolin-treated (100%) responses.
(§6) (% of forskolin stimulation) […]

NPFFR2 mutants [2] = target: T2, NPFFR2 mutants (Homo sapiens, UniProt Q9Y5X5, E289A); settings: NPFFR2 E187ECL2A, HEK293T, three independent experiments
T2 construct: expressed in transfected cells; host or cells: HEK293T (pcDNA3.1 NPFFR2 mutants)
Description: as §1, §2, §3, §4, §5, §6

NPFFR2 mutants [3] = target: T3, NPFFR2 mutants (Homo sapiens, UniProt Q9Y5X5, H421A); settings: NPFFR2 H3197.39A, HEK293T, three independent experiments
T3 construct: expressed in transfected cells; host or cells: HEK293T (pcDNA3.1 NPFFR2 mutants)
Description: as §1, §2, §3, §4, §5, §6

NPFFR2 mutants [4] = target: T4, NPFFR2 mutants (Homo sapiens, UniProt Q9Y5X5, I414A); settings: NPFFR2 I3127.32A, HEK293T, three independent experiments
T4 construct: expressed in transfected cells; host or cells: HEK293T (pcDNA3.1 NPFFR2 mutants)
Description: as §1, §2, §3, §4, §5, §6

NPFFR2 mutants [5] = target: T5, NPFFR2 mutants (Homo sapiens, UniProt Q9Y5X5, I414S); settings: NPFFR2 I3127.32S, HEK293T, three independent experiments
T5 construct: expressed in transfected cells; host or cells: HEK293T (pcDNA3.1 NPFFR2 mutants)
Description: as §1, §2, §3, §4, §5, §6

NPFFR2 mutants [6] = target: T6, NPFFR2 mutants (Homo sapiens, UniProt Q9Y5X5, L141A); settings: NPFFR2 L39NtA, HEK293T, three independent experiments
T6 construct: expressed in transfected cells; host or cells: HEK293T (pcDNA3.1 NPFFR2 mutants)
Description: as §1, §2, §3, §4, §5, §6

NPFFR2 mutants [7] = target: T7, NPFFR2 mutants (Homo sapiens, UniProt Q9Y5X5, N413A); settings: NPFFR2 N3117.31A, HEK293T, three independent experiments
T7 construct: expressed in transfected cells; host or cells: HEK293T (pcDNA3.1 NPFFR2 mutants)
Description: as §1, §2, §3, §4, §5, §6

NPFFR2 mutants [8] = target: T8, NPFFR2 mutants (Homo sapiens, UniProt Q9Y5X5, Q227A); settings: NPFFR2 Q1253.32A, HEK293T, three independent experiments
T8 construct: expressed in transfected cells; host or cells: HEK293T (pcDNA3.1 NPFFR2 mutants)
Description: as §1, §2, §3, §4, §5, §6

NPFFR2 mutants [9] = target: T9, NPFFR2 mutants (Homo sapiens, UniProt Q9Y5X5, T322A); settings: NPFFR2 T2205.39A, HEK293T, three independent experiments
T9 construct: expressed in transfected cells; host or cells: HEK293T (pcDNA3.1 NPFFR2 mutants)
Description: as §1, §2, §3, §4, §5, §6

NPFFR2 mutants [10] = target: T10, NPFFR2 mutants (Homo sapiens, UniProt Q9Y5X5, V305A); settings: NPFFR2 V203ECL2A, HEK293T, three independent experiments
T10 construct: expressed in transfected cells; host or cells: HEK293T (pcDNA3.1 NPFFR2 mutants)
Description: as §1, §2, §3, §4, §5, §6

NPFFR2 mutants [11] = target: T11, NPFFR2 mutants (Homo sapiens, UniProt Q9Y5X5, W393A); settings: NPFFR2 W2916.52A, HEK293T, three independent experiments
T11 construct: expressed in transfected cells; host or cells: HEK293T (pcDNA3.1 NPFFR2 mutants)
Description: as §1, §2, §3, §4, §5, §6

NPFFR2 mutants [12] = target: T12, NPFFR2 mutants (Homo sapiens, UniProt Q9Y5X5, Y321A); settings: NPFFR2 Y2195.38A, HEK293T, three independent experiments
T12 construct: expressed in transfected cells; host or cells: HEK293T (pcDNA3.1 NPFFR2 mutants)
Description: as §1, §2, §3, §4, §5, §6

T4 sequence (Q9Y5X5 103-522 I414A): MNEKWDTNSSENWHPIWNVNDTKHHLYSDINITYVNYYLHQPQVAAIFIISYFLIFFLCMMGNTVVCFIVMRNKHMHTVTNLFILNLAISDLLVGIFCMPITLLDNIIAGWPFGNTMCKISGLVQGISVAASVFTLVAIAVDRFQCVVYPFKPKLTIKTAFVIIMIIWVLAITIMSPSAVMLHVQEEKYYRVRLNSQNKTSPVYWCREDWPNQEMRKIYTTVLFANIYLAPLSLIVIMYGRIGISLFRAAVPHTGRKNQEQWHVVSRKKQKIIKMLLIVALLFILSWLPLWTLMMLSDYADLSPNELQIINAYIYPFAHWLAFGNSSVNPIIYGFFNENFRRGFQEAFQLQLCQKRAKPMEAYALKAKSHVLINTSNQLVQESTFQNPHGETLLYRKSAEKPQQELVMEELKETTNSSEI
T3 sequence (Q9Y5X5 103-522 H421A): as the sequence (Q9Y5X5 103-522 I414A) above, with A312I, H319A counted along it
T10 sequence (Q9Y5X5 103-522 V305A): as the sequence (Q9Y5X5 103-522 I414A) above, with V203A, A312I counted along it
T9 sequence (Q9Y5X5 103-522 T322A): as the sequence (Q9Y5X5 103-522 I414A) above, with T220A, A312I counted along it
T12 sequence (Q9Y5X5 103-522 Y321A): as the sequence (Q9Y5X5 103-522 I414A) above, with Y219A, A312I counted along it
T1 sequence (Q9Y5X5 103-522 D207A): as the sequence (Q9Y5X5 103-522 I414A) above, with D105A, A312I counted along it
T7 sequence (Q9Y5X5 103-522 N413A): as the sequence (Q9Y5X5 103-522 I414A) above, with N311A, A312I counted along it
T8 sequence (Q9Y5X5 103-522 Q227A): as the sequence (Q9Y5X5 103-522 I414A) above, with Q125A, A312I counted along it
T5 sequence (Q9Y5X5 103-522 I414S): as the sequence (Q9Y5X5 103-522 I414A) above, with A312S counted along it
T6 sequence (Q9Y5X5 103-522 L141A): as the sequence (Q9Y5X5 103-522 I414A) above, with L39A, A312I counted along it
T2 sequence (Q9Y5X5 103-522 E289A): as the sequence (Q9Y5X5 103-522 I414A) above, with E187A, A312I counted along it
T11 sequence (Q9Y5X5 103-522 W393A): as the sequence (Q9Y5X5 103-522 I414A) above, with W291A, A312I counted along it

Emax (NPFFR2 mutants [1]; HEK-293T): 69 ± 4%
EC50 (NPFFR2 mutants [1]): 12.6 nM
Emax (NPFFR2 mutants [2]; HEK-293T): 75 ± 3%
EC50 (NPFFR2 mutants [2]): 1 nM
Emax (NPFFR2 mutants [3]; HEK-293T): 57 ± 2%
EC50 (NPFFR2 mutants [3]): 63.1 nM
Emax (NPFFR2 mutants [4]; HEK-293T): 63 ± 3%
EC50 (NPFFR2 mutants [4]): 10 nM
Emax (NPFFR2 mutants [5]; HEK-293T): 75 ± 3%
EC50 (NPFFR2 mutants [5]): 31.6 nM
Emax (NPFFR2 mutants [6]; HEK-293T): 70 ± 3%
EC50 (NPFFR2 mutants [6]): 10 nM
Emax (NPFFR2 mutants [7]; HEK-293T): 69 ± 8%
EC50 (NPFFR2 mutants [7]): 1260 nM
Emax (NPFFR2 mutants [8]; HEK-293T): 59 ± 4%
EC50 (NPFFR2 mutants [8]): 1260 nM
Emax (NPFFR2 mutants [9]; HEK-293T): 70 ± 5%
EC50 (NPFFR2 mutants [9]): 631 nM
Emax (NPFFR2 mutants [10]; HEK-293T): 78 ± 3%
EC50 (NPFFR2 mutants [10]): 200 nM
Emax (NPFFR2 mutants [11]; HEK-293T): 80 ± 4%
EC50 (NPFFR2 mutants [11]): 79.4 nM
Emax (NPFFR2 mutants [12]; HEK-293T): 72 ± 3%
EC50 (NPFFR2 mutants [12]): 100 nM
SMILES: CC(C)C[C@H](NC(=O)[C@H](Cc1ccccc1)NC(=O)[C@H](C)NC(=O)[C@H](CCC(N)=O)NC(=O)[C@@H](N)CO)C(=O)N[C@@H](Cc1ccccc1)C(=O)N[C@@H](CCC(N)=O)C(=O)N1CCC[C@H]1C(=O)N[C@@H](CCC(N)=O)C(=O)N[C@@H](CCCNC(=N)N)C(=O)N[C@@H](Cc1ccccc1)C(N)=O [hNPSF]
